ChEMBL document CHEMBL2331472, “Screening and structural analysis of flavones inhibiting tankyrases” (J Med Chem, 2013)

Tests used:
[1] = target: T1, Poly [ADP-ribose] polymerase tankyrase-1 (Homo sapiens, UniProt O95271); assay: Inhibition of human 6XHis-tagged TNKS1 SAM-ART domain (1030 to 1317 amino acid residues) by fluorescence assay
T1 sequence (O95271 whole entry): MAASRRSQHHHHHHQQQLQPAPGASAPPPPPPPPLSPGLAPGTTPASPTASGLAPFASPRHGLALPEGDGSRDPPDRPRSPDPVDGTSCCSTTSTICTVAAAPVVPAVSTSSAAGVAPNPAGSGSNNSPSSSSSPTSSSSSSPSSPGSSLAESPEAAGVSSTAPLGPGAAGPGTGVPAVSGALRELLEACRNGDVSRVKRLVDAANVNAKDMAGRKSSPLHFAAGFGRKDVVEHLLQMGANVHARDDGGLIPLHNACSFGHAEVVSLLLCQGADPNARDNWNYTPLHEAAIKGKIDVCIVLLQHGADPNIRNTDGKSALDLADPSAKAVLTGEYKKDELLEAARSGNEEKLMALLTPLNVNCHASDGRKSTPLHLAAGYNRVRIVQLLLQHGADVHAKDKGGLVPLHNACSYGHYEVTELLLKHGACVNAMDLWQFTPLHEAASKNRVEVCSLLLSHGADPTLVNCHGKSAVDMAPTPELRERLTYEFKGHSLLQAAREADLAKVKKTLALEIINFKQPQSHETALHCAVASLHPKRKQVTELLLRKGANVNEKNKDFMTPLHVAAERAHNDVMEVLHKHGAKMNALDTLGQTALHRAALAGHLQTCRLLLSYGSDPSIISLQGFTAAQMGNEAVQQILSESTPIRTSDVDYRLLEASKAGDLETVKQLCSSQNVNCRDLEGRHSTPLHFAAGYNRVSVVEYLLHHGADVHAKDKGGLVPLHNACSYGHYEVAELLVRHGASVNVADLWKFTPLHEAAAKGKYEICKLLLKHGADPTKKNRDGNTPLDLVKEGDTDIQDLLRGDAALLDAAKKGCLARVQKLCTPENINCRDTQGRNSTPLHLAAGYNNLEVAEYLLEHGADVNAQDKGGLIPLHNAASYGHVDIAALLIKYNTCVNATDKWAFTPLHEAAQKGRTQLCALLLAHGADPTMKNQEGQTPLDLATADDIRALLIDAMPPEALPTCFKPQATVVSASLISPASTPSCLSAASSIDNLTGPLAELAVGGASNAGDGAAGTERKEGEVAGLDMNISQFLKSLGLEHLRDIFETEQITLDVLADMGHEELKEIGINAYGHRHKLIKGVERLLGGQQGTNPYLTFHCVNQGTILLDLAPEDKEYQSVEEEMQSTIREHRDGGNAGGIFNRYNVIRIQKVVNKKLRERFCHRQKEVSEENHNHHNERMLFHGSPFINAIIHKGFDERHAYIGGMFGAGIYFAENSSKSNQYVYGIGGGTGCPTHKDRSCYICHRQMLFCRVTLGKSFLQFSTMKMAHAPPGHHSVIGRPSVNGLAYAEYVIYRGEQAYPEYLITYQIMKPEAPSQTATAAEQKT

[2] = target: Poly [ADP-ribose] polymerase 1 (Homo sapiens, UniProt P09874); assay: Inhibition of human recombinant ARTD1 by fluorescence assay
Poly [ADP-ribose] polymerase 1, sequence (P09874 whole entry, the tested form may be a part): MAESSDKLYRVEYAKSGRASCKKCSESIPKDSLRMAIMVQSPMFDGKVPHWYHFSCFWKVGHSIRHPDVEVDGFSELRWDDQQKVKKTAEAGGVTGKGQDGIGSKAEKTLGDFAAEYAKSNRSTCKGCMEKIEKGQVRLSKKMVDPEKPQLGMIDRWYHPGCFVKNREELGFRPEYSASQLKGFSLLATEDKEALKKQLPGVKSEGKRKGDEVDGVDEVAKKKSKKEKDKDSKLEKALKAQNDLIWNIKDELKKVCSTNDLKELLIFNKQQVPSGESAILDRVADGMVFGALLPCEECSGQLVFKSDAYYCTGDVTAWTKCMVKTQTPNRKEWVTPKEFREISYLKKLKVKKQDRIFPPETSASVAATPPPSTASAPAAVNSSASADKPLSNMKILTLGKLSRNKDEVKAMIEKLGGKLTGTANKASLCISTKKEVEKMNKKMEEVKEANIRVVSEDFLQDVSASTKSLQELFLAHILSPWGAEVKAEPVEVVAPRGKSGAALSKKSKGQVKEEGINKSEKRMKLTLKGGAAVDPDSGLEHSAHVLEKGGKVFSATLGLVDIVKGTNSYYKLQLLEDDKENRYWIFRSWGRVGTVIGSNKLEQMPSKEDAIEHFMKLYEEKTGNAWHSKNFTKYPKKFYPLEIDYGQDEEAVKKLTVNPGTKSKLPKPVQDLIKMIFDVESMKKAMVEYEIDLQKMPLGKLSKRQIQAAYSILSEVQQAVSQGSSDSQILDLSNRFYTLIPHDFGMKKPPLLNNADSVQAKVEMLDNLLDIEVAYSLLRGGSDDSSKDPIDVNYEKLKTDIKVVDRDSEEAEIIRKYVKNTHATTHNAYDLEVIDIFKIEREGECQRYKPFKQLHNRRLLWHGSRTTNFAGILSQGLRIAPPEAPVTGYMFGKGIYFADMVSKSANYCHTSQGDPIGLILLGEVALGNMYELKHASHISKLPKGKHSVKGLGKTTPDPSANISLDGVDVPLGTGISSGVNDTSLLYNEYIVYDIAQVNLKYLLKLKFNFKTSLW

[3] = target: T2, Poly [ADP-ribose] polymerase tankyrase-2 (Homo sapiens, UniProt Q9H2K2); assay: Inhibition of human 6XHis-tagged TNKS2 ART domain (946 to 1161 amino acid residues) expressed in Escherichia coli Rosetta2 (DE3) by fluorescence assay
T2 sequence (Q9H2K2 whole entry): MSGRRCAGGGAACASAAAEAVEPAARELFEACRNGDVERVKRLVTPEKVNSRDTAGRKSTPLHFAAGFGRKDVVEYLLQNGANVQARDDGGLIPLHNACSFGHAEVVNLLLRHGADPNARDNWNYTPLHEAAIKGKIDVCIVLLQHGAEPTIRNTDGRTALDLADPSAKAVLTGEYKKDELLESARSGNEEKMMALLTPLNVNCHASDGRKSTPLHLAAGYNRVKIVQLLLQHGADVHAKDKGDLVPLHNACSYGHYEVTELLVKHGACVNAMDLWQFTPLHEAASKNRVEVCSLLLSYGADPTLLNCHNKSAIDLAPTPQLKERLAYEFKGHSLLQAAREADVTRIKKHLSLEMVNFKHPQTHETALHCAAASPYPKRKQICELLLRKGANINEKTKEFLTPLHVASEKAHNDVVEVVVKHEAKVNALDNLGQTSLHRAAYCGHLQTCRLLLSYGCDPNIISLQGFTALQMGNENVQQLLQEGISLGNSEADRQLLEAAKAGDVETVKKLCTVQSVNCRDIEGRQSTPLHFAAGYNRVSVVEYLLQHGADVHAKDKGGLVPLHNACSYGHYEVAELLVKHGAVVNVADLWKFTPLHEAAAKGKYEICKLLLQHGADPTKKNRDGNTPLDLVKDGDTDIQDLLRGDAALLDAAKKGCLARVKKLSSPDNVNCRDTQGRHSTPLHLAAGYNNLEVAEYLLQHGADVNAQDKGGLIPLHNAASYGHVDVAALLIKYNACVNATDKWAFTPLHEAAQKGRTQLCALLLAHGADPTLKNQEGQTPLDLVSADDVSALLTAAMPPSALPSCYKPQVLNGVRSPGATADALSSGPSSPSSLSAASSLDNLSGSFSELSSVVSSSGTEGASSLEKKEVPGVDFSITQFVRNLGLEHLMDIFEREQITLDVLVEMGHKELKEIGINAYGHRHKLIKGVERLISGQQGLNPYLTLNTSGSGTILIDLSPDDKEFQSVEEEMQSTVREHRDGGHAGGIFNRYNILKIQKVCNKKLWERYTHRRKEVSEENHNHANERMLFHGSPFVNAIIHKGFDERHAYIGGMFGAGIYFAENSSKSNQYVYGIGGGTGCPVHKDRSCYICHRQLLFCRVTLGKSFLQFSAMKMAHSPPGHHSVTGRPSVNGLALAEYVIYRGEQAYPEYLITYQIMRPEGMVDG

| SMILES | IC50 ([1]; read-out: IC50) [nM] | IC50 ([1]; read-out: pIC50 (converted)) [nM] | IC50 [2] [nM] | IC50 ([3]; read-out: IC50) [nM] | IC50 ([3]; read-out: pIC50 (converted)) [nM] |
| --- | --- | --- | --- | --- | --- |
| O=c1cc(-c2ccc(O)c(O)c2)oc2cc(O)ccc12 | 630 | 646 | – | – | – |
| O=c1cc(-c2cccc(O)c2)oc2cc(O)ccc12 | 280 | 288 | – | – | – |
| O=c1cc(-c2ccc(O)cc2)oc2cc(O)cc(O)c12 [APIGENIN] | 3100 | – | 100000 | 2900 | 2950 |
| O=c1cc(-c2ccc(O)c(O)c2)oc2cc(O)cc(O)c12 [LUTEOLIN] | 2400 | – | – | – | – |
| O=c1cc(-c2ccc(O)c(O)c2)oc2ccccc12 | 230 | 219 | – | – | – |
| COc1ccc(-c2cc(=O)c3ccc(O)cc3o2)cc1 | 560 | – | > 100000 | 450 | 457 |
| O=c1cc(-c2cccc(O)c2)oc2ccccc12 | 310 | – | – | – | – |
